25 compounds from patent publication US11464770B2, “Anticancer pharmaceutical composition” (NATIONAL CANCER CENTER, priority 2016, dated 2022) can be followed below.

Where two headings read alike, the source gives them in different places. Some results are limits rather than exact numbers.

For this experiment, the system named is prostate cancer cell lines (e.g. DU145/TXR). In words: Cell based assay, cell viability (CellTiter-Glo), prostate cancer cell lines. As to conditions: Homo sapiens, 72 hours treatment, final concentration 0 to 2 μM. How it is done:
Commercially available bladder cancer, prostate cancer, lung cancer, breast cancer, blood cancer, pancreatic cancer, colorectal cancer, brain cancer, neuroblastoma, melanoma, liver cancer, cervical carcinoma, ovarian cancer, renal cancer, and papilloma cell lines were each treated with trypsin-EDTA and cultured, followed by being seeded in each well of a 96 well plate. After 24 hours of treatment at constant temperature, the respective cells were treated with the candidate compound so that a final concentration became 0 to 2 μM. The treated cells were additionally cultured for 72 hours, and cell viability was measured by using an ATP detection method (CellTiter-Glo® Luminescent Cell Viability Assay, Promega).

[1] abbreviates: CWR22 cells, read-out: IC50, prostate cancer cell line CWR22.
Setting [2] is: DU-145, DU145/TXR cells, read-out: IC50, prostate cancer cell line DU145/TXR.
Where [3] appears, read: DU-145, DU145 cells, read-out: IC50, prostate cancer cell line DU145.
Where [4] appears, read: LNcap cells, read-out: IC50, prostate cancer cell line LNcap.
[5] abbreviates: PC-3 cells, read-out: IC50, prostate cancer cell line PC-3.

On to `CC(=O)c1c(SCc2ccc(F)c(Cl)c2)[nH]c2c(Br)ccc(Cl)c2c1=O` [Compound 30, 3-acetyl-8-bromo-5-chloro-2-((3-chloro-4-fluorobenzyl)thio)quinolin-4(1H)-one], for which the IC50 runs as follows: under setting [1], greater than 2 µM; under setting [2], greater than 2 µM; under setting [3], greater than 2 µM; under setting [4], greater than 2 µM; under setting [5], greater than 2 µM.
Consider `CC(=O)c1c(SCc2ccc([N+](=O)[O-])cc2)[nH]c2c(Br)ccc(Cl)c2c1=O` [Compound 32, 3-acetyl-8-bromo-5-chloro-2-((4-nitrobenzyl)thio)quinolin-4(1H)-one], for which the IC50 was greater than 2 µM under setting [1]; greater than 2 µM under setting [2]; greater than 2 µM under setting [3]; greater than 2 µM under setting [4]; greater than 2 µM under setting [5].
Consider `CSc1c(C(C)=O)c(=O)c2c(Cl)ccc(Br)c2n1S(C)(=O)=O` [Compound 35, 3-acetyl-8-bromo-5-chloro-1-(methylsulfonyl)-2-(methylthio)quinolin-4(1H)-one], for which the IC50 is greater than 2 µM under setting [1]; greater than 2 µM under setting [2]; greater than 2 µM under setting [3]; greater than 2 µM under setting [4]; greater than 2 µM under setting [5].
With `CC(=O)c1c([S+](C)[O-])n(S(=O)(=O)C(F)(F)F)c2c(Br)ccc(Cl)c2c1=O` (centres unmarked) [Compound 36, 3-acetyl-8-bromo-5-chloro-2-(methylsulfinyl)-1-((trifluoromethyl)sulfonyl)quinolin-4(1H)-one], the IC50 is greater than 2 µM under setting [1]; greater than 2 µM under setting [2]; greater than 2 µM under setting [3]; greater than 2 µM under setting [4]; greater than 2 µM under setting [5].
Turning to `CSc1c(C(C)=O)c(=O)c2c(Cl)ccc(Br)c2n1S(=O)(=O)c1ccc(Cl)cc1` [Compound 37, 3-acetyl-8-bromo-5-chloro-1-((4-chlorophenyl)sulfonyl)-2-(methylthio)quinolin-4(1H)-one], the IC50 is, setting by setting: under setting [1], greater than 2 µM; under setting [2], greater than 2 µM; under setting [3], greater than 2 µM; under setting [4], greater than 2 µM; under setting [5], greater than 2 µM.
In the case of `CSc1c(C(C)=O)c(=O)c2c(Cl)ccc(Br)c2n1S(=O)(=O)c1ccc([N+](=O)[O-])cc1` [Compound 38, 3-acetyl-8-bromo-5-chloro-2-(methylthio)-1-((4-nitrophenyl)sulfonyl)quinolin-4(1H)-one], the IC50 reads like this: under setting [1], greater than 2 µM; under setting [2], greater than 2 µM; under setting [3], greater than 2 µM; under setting [4], greater than 2 µM; under setting [5], greater than 2 µM.
Consider `CCS(=O)(=O)n1c([S+](C)[O-])c(C(C)=O)c(=O)c2c(Cl)ccc(Br)c21` (centres unmarked) [Compound 39, 3-acetyl-8-bromo-5-chloro-1-(ethylsulfonyl)-2-(methylsulfinyl)quinolin-4(1H)-one], for which the IC50 was greater than 2 µM under setting [1]; greater than 2 µM under setting [2]; greater than 2 µM under setting [3]; greater than 2 µM under setting [4]; greater than 2 µM under setting [5].
`CSc1c(C(C)=O)c(=O)c2c(Cl)ccc(Br)c2n1S(=O)(=O)c1ccc(C(C)(C)C)cc1` [Compound 40, 3-acetyl-8-bromo-1-((4-(tert-butyl)phenyl)sulfonyl)-5-chloro-2-(methylthio)quinolin-4(1H)-one]: the IC50 is greater than 2 µM under setting [1]; greater than 2 µM under setting [2]; greater than 2 µM under setting [3]; greater than 2 µM under setting [4]; greater than 2 µM under setting [5].
Consider `CC(=O)c1c(S(C)(=O)=O)n(S(=O)(=O)c2ccc(C(C)(C)C)cc2)c2c(Br)ccc(Cl)c2c1=O` [Compound 41, 3-acetyl-8-bromo-1-((4-(tert-butyl)phenyl)sulfonyl)-5-chloro-2-(methylsulfonyl)quinolin-4(1H)-one], for which the IC50 is greater than 2 µM under setting [1]; greater than 2 µM under setting [2]; greater than 2 µM under setting [3]; greater than 2 µM under setting [4]; greater than 2 µM under setting [5].
As for `CC(=O)c1c([S+](C)[O-])n(S(=O)(=O)c2ccc(C(C)(C)C)cc2)c2c(Br)ccc(Cl)c2c1=O` (centres unmarked) [Compound 42, 3-acetyl-8-bromo-1-((4-(tert-butyl)phenyl)sulfonyl)-5-chloro-2-(methylsulfinyl)quinolin-4(1H)-one], the IC50 runs as follows: under setting [1], greater than 2 µM; under setting [2], greater than 2 µM; under setting [3], greater than 2 µM; under setting [4], greater than 2 µM; under setting [5], greater than 2 µM.
In the case of `CC(=O)c1c(SCc2cc(Cl)ccc2Cl)[nH]c2c(Br)ccc(Cl)c2c1=O` [Compound 43, 3-acetyl-8-bromo-5-chloro-2-((2,5-dichlorobenzyl)thio)quinolin-4(1H)-one], the IC50 was greater than 2 µM under setting [1]; greater than 2 µM under setting [2]; greater than 2 µM under setting [3]; greater than 2 µM under setting [4]; greater than 2 µM under setting [5].
Consider `CC(=O)c1c(SCc2cc(F)cc(F)c2)[nH]c2c(Br)ccc(Cl)c2c1=O` [Compound 45, 3-acetyl-8-bromo-5-chloro-2-((3,5-difluorobenzyl)thio)quinolin-4(1H)-one], for which the IC50 under setting [1] was greater than 2 µM; the IC50 under setting [2] was greater than 2 µM; the IC50 under setting [3] is greater than 2 µM; the IC50 under setting [4] is greater than 2 µM; the IC50 under setting [5] is greater than 2 µM.
Take `CC(=O)c1c(SCc2cccc(I)c2)[nH]c2c(Br)ccc(Cl)c2c1=O` [Compound 47, 3-acetyl-8-bromo-5-chloro-2-((3-iodobenzyl)thio)quinolin-4(1H)-one]: the IC50 under setting [1] is greater than 2 µM; the IC50 under setting [2] was greater than 2 µM; the IC50 under setting [3] was greater than 2 µM; the IC50 under setting [4] was greater than 2 µM; the IC50 under setting [5] was greater than 2 µM.
Consider `CC(=O)c1c([S+]([O-])Cc2cccc(I)c2)[nH]c2c(Br)ccc(Cl)c2c1=O` (centres unmarked) [Compound 48, 3-acetyl-8-bromo-5-chloro-2-((3-iodobenzyl)sulfinyl)quinolin-4(1H)-one], for which the IC50 was greater than 2 µM under setting [1], 1.57 µM under setting [2], greater than 2 µM under setting [3] and greater than 2 µM under setting [4].
`CC(=O)c1c(SCc2cccc(F)c2)[nH]c2c(Br)ccc(Cl)c2c1=O` [Compound 49, 3-acetyl-8-bromo-5-chloro-2-((3-fluorobenzyl)thio)quinolin-4(1H)-one]: the IC50 by setting is: under setting [1], greater than 2 µM; under setting [2], greater than 2 µM; under setting [3], greater than 2 µM; under setting [4], greater than 2 µM; under setting [5], greater than 2 µM.
For the compound `CC(=O)c1c(SCc2ccccc2)nc2c(Br)ccc(Cl)c2c1O` [Compound 52, 1-(2-(benzylthio)-8-bromo-5-chloro-4-hydroxyquinolin-3-yl)ethan-1-one], the IC50 under setting [1] was greater than 2 µM; the IC50 under setting [2] was greater than 2 µM; the IC50 under setting [3] was greater than 2 µM; the IC50 under setting [4] is greater than 2 µM; the IC50 under setting [5] is greater than 2 µM.
For `CC(=O)c1c([S+]([O-])Cc2ccccc2)nc2c(Br)ccc(Cl)c2c1O` (centres unmarked) [Compound 53, 1-(2-(benzylsulfinyl)-8-bromo-5-chloro-4-hydroxyquinolin-3-yl)ethan-1-one], the IC50 is greater than 2 µM under setting [1], greater than 2 µM under setting [2], greater than 2 µM under setting [3] and greater than 2 µM under setting [4].
Turning to `CC(=O)c1c(S(=O)(=O)Cc2ccccc2)nc2c(Br)ccc(Cl)c2c1O` [Compound 54, 1-(2-(benzylsulfonyl)-8-bromo-5-chloro-4-hydroxyquinolin-3-yl)ethan-1-one], the IC50 reads like this: under setting [1], greater than 2 µM; under setting [2], greater than 2 µM; under setting [3], greater than 2 µM; under setting [4], greater than 2 µM; under setting [5], greater than 2 µM.
As for `CC(=O)c1c([S+]([O-])Cc2ccccc2C#N)[nH]c2c(Br)ccc(Cl)c2c1=O` (centres unmarked) [Compound 58, 2-(((3-acetyl-8-bromo-5-chloro-4-oxo-1,4-dihydroquinolin-2-yl)sulfinyl)methyl)benzonitrile], the IC50 turned out to be 1.2 µM under setting [1]; 1.21 µM under setting [2]; 1.23 µM under setting [3]; 1.44 µM under setting [4]; 1.3 µM under setting [5].
Regarding `COCSc1[nH]c2c(Br)ccc(Cl)c2c(=O)c1C(C)=O` [Compound 61, 3-acetyl-8-bromo-5-chloro-2-((methoxymethyl)thio)quinolin-4(1H)-one], the IC50 is greater than 2 µM under setting [1]; greater than 2 µM under setting [2]; greater than 2 µM under setting [3]; greater than 2 µM under setting [4]; greater than 2 µM under setting [5].
Consider `CC(=O)c1c(S)[nH]c2c(Br)ccc(Cl)c2c1=O` [Compound 62, 3-acetyl-8-bromo-5-chloro-2-mercaptoquinolin-4(1H)-one], for which the IC50 reads like this: under setting [1], greater than 2 µM; under setting [2], greater than 2 µM; under setting [3], greater than 2 µM; under setting [4], greater than 2 µM; under setting [5], greater than 2 µM.
Regarding `CC(=O)c1c([S+]([O-])Cc2ccc(C(=O)c3ccccc3)cc2)[nH]c2c(Br)ccc(Cl)c2c1=O` (centres unmarked) [Compound 63, 3-acetyl-2-((4-benzoylbenzyl)sulfinyl)-8-bromo-5-chloroquinolin-4(1H)-one], the IC50 is greater than 2 µM under setting [1], greater than 2 µM under setting [2], greater than 2 µM under setting [3] and greater than 2 µM under setting [4].
As to `CC(=O)c1c([S+]([O-])CC#N)[nH]c2c(Br)ccc(Cl)c2c1=O` (centres unmarked) [Compound 65, 2-((3-acetyl-8-bromo-5-chloro-4-oxo-1,4-dihydroquinolin-2-yl)sulfinyl)acetonitrile], the IC50 runs as follows: under setting [1], greater than 2 µM; under setting [2], greater than 2 µM; under setting [3], greater than 2 µM; under setting [4], greater than 2 µM; under setting [5], greater than 2 µM.
With `CC(=O)c1c(SCC#N)[nH]c2c(Br)ccc(Cl)c2c1=O` [Compound 66, 2-((3-acetyl-8-bromo-5-chloro-4-oxo-1,4-dihydroquinolin-2-yl)thio)acetonitrile], the IC50 under setting [1] was greater than 2 µM; the IC50 under setting [2] was greater than 2 µM; the IC50 under setting [3] is greater than 2 µM; the IC50 under setting [4] is greater than 2 µM; the IC50 under setting [5] was greater than 2 µM.
Take `CC(=O)c1c(S/C=C\C(=O)O)[nH]c2c(Br)ccc(Cl)c2c1=O` [Compound 67, (Z)-3-((3-acetyl-8-bromo-5-chloro-4-oxo-1,4-dihydroquinolin-2-yl)thio)acrylic acid]: the IC50 reads like this: under setting [1], greater than 2 µM; under setting [2], greater than 2 µM; under setting [3], greater than 2 µM; under setting [4], greater than 2 µM; under setting [5], greater than 2 µM.
